This passage reports cytotoxicity results from ChEMBL document CHEMBL3507680, “University of Dundee, Gates Library screen for HepG2 cell viability”.

The nature of the data set: Human HepG2 cell viability assay in 384 well format. The class given is toxicity, cell-based. The arrangement: dose 125 nL, time 70.5 hour; concentration not given beside the values. The following applies: HepG2 cells, read-out: Inhibition.

`COCc1cc(CNC(=O)c2cc(NC(C)=O)ccc2Cl)n[nH]1`: the cytotoxicity at 70.5 h is -6.43%.

Consider `COC(=O)CCC(=O)N(C/C=C/c1ccccc1)CCO`, for which the cytotoxicity at 70.5 h amounted to 23.1%. Then `Cc1nc(N2CCCC(OCc3ccccn3)C2)c2c(C)noc2n1` (stereo not drawn), with -9.19%; and `FC(F)Oc1ccccc1CN1CCCC(c2nccn2CC2CC2)C1` (stereo not drawn), with -1.02%; and `CCNc1ccnc(NC2CCN(CC(N)=O)CC2)n1`, with 14%.

For the compound `COc1coc(CN2CCCC3(CCC(=O)N(CC4CC4)C3)C2)cc1=O` (stereo not drawn), the cytotoxicity at 70.5 h was -8.43%. Regarding `Cc1nsc(NC(=O)NC2(CN3CCOCC3)CCCCC2)n1`, the cytotoxicity at 70.5 h worked out at 1.42%. Turning to `OC1CCN(CCCn2ccnc2-c2c[nH]cn2)CC1`, the cytotoxicity at 70.5 h was -5.95%. Consider `CC(C)(O)CCc1ccc(C(=O)N2CCN(CC(F)(F)F)CC2)cc1`, for which the cytotoxicity at 70.5 h stood at 3.68%. Then `Cc1nc(-c2cccc(N3CCC(N4CCCC(C#N)C4)CC3)c2)cs1` (stereo not drawn), with 22.1%; and `Cc1cnc(C)c(N2CC[C@H](N3CCOCC3)[C@H](CCCO)C2)n1`, with -9.88%; and `Cc1cccnc1N1CCN(C(=O)C(C)n2ccnc2C(C)C)CC1` (stereo not drawn), with -2.78%. In the case of `O=C1NCC2(CCCN(C(=O)CCn3cnc4ccccc43)CC2)O1` (stereo not drawn), the cytotoxicity at 70.5 h is -1.01%. On to `Cc1ncccc1OC1(C(=O)NCCc2ccccn2)CCNCC1`, for which the cytotoxicity at 70.5 h stood at 13.7%. Regarding `N[C@H]1CN(CCOc2ccc(F)cc2)C[C@@H]1C1CC1`, the cytotoxicity at 70.5 h worked out at 14.7%. With `Cc1ccccc1-c1noc(-c2ccc(N(C)C3CCOCC3)nc2)n1`, the cytotoxicity at 70.5 h is -2.11%. In the case of `CCc1nccn1CCC(=O)N1CCOC(c2ccc(F)cc2)C1` (stereo not drawn), the cytotoxicity at 70.5 h was -6.46%.

In the case of `CCCn1cc(C(=O)NCC(=O)NC2CC2)c(C)n1`, the cytotoxicity at 70.5 h is -0.483%. `Cc1ccc(-n2cc(CN3CCN(C)[C@@H]4CS(=O)(=O)C[C@@H]43)cn2)cc1`: the cytotoxicity at 70.5 h was -5.8%. In the case of `Cc1nc(C2CCN(C)CC2)cc(N2CCOc3ccc(Cl)cc3C2)n1`, the cytotoxicity at 70.5 h stood at 32.5%. On to `CN(Cc1ccc(C2CC(=O)Nc3cc4[nH]ncc4cc32)o1)S(C)(=O)=O` (stereo not drawn), for which the cytotoxicity at 70.5 h is -0.109%. For `CC(C)CN1CCCC1c1ccc(C(=O)Nc2cc[nH]n2)s1` (stereo not drawn), the cytotoxicity at 70.5 h is -0.844%.

For the compound `CCCc1cnc(C)nc1N1CCC(Cn2cc(CN(C)C)nn2)CC1`, the cytotoxicity at 70.5 h was -6.13%.

In the case of `Cc1nc(CCNC(=O)C2CCN(C(C)C)CC2)sc1Cl`, the cytotoxicity at 70.5 h was -0.288%. The value for `Cc1cc(CN2CCC(C(=O)O)(n3ccc(-c4ccco4)n3)CC2)on1` was -2.92%; that for `Cc1cc(C)n(CC(C)NC(=O)c2cc(CN3CCC(O)CC3)on2)n1` (stereo not drawn) was -9.49%; that for `COc1cccc(CCC2CCCN(C(C)=O)C2)c1` (stereo not drawn) was -1.99%. For the compound `COc1ccccc1CNC(=O)CN(C)C(C)c1ccncn1` (stereo not drawn), the cytotoxicity at 70.5 h was -18.5%. Regarding `Cc1ccc(CN2CCC(Cc3nnc(CO)n3C)CC2)cc1C`, the cytotoxicity at 70.5 h stood at 3.69%. Consider `O=c1c2cccc(F)c2ncn1CCN1CCOCC1`, for which the cytotoxicity at 70.5 h is -3.65%. `CN1CC2(CCN(C(=O)Cc3ccc(O)c(F)c3)CC2)CC1=O`: the cytotoxicity at 70.5 h came out at 10.1%. The value for `O=C(NCc1ccoc1)c1ccc(C2CCCN2CC2CCOCC2)s1` (stereo not drawn) was 38.9%; that for `Cc1nc(C(C)NC(=O)c2cn(C/C=C/c3ccccc3)nn2)n[nH]1` (stereo not drawn) was -13.1%; that for `COCc1ccc(C(=O)N2CCN(CC3CC3)[C@@H]3CS(=O)(=O)C[C@@H]32)o1` was -1.28%. `CN(C)S(=O)(=O)NCc1cccnc1Oc1ccccc1F`: the cytotoxicity at 70.5 h was determined as 1.78%.

In the case of `Cc1ccc(C(=O)N2C[C@@H](NS(C)(=O)=O)[C@H](C(C)C)C2)cc1O`, the cytotoxicity at 70.5 h was 1.71%. With `COCCN(CC(N)=O)CC1CCCN(C2Cc3ccccc3C2)C1` (stereo not drawn), the cytotoxicity at 70.5 h came out at 7.41%. Consider `O=C(C1CCCO1)N1CCC(n2cc(-c3ccc(F)cc3)nn2)CC1` (stereo not drawn), for which the cytotoxicity at 70.5 h came to 0.724%. As for `CCc1c(C)nn(CCNC(=O)c2csc(C)n2)c1C`, the cytotoxicity at 70.5 h was -6.58%. `COCCN1CCCC(O)(CN2CCN(c3cc(C)ccn3)CC2)C1=O` (stereo not drawn): the cytotoxicity at 70.5 h is -0.635%. For the compound `Cc1ccc(N2CCN(C(=O)C3CN(C)C(=O)N3)CC2=O)cc1` (stereo not drawn), the cytotoxicity at 70.5 h was 3.04%.

For `CSC(C)Cc1c(-c2ccccc2)ncn1CCCNc1cccnc1` (stereo not drawn), the cytotoxicity at 70.5 h was -0.408%. Then `CNC(=O)[C@@H]1C[C@@H](NC(=O)Cc2nonc2C)CN1Cc1sccc1C`, with 1.29%; and `O=C(NC1CCCN(CCc2ccccc2)C1)c1ccccn1` (stereo not drawn), with -1.94%. On to `NC(=O)c1cnc2n1CCN(C(=O)c1ccc(-c3cc[nH]n3)cc1)C2`, for which the cytotoxicity at 70.5 h was -10.3%.

Take `CN(Cc1cccnc1)CC1(O)CCCN(CC(C)(C)C)C1=O` (stereo not drawn): the cytotoxicity at 70.5 h is -2.66%.

As to `Clc1ccccc1Cc1noc(CN2CCCC(CN3CCCC3)C2)n1` (stereo not drawn), the cytotoxicity at 70.5 h was -3.9%. In the case of `O=C(NCc1nc(NC2CCCC2)c2cc(Cl)ccc2n1)c1cscn1`, the cytotoxicity at 70.5 h is -2.54%. Take `CN(C)c1ccccc1C(=O)N1CCCC(c2cccc(C(=O)O)c2)C1` (stereo not drawn): the cytotoxicity at 70.5 h is -8.42%. Then `Nc1cc(C(=O)N2C[C@H]3CC[C@@H]2CN(Cc2cccnc2)C3)ccn1`, with -6.5%; and `CC(C)CN1C(=O)CC[C@H]2CN(Cc3ncc[nH]3)CC[C@H]21`, with -3.44%; and `COc1cccc(C(C(=O)O)N(C)Cc2ccc(C)o2)c1` (stereo not drawn), with -0.112%. In the case of `CCc1ccccc1OCCN1C[C@@H](NS(C)(=O)=O)[C@H](C(C)C)C1`, the cytotoxicity at 70.5 h was -5.69%. Then `O=C(C1CCCO1)N1CCc2onc(-c3ccc(Cl)cc3)c2C1` (stereo not drawn), with 16.8%; and `CC(C)Cc1cc(C(=O)NCC(c2ccc(F)cc2)N(C)C)n(C)n1` (stereo not drawn), with -15.4%.

Regarding `COCCN1C(=O)[C@H]2CC[C@@H]1CN(S(=O)(=O)c1ccc(C#N)cc1)C2`, the cytotoxicity at 70.5 h was -3.7%.

Take `Cc1nc2c(c(=O)n1C)CN(C(=O)C1CCCN(C3CCCC3)C1)C2` (stereo not drawn): the cytotoxicity at 70.5 h was 6.1%.

With `CCn1c(-c2ccccc2)nn(CC(=O)NCCc2c[nH]cn2)c1=O`, the cytotoxicity at 70.5 h was determined as 28.4%. As to `CN(C)C(C(=O)N1CCN(C(=O)c2ccc[nH]2)CC1)c1ccc(F)cc1` (stereo not drawn), the cytotoxicity at 70.5 h stood at 9.68%.

Take `CCCc1nnc(N2CCC(C3CCN(C)CC3)CC2)o1`: the cytotoxicity at 70.5 h worked out at 9.11%. Regarding `Cc1nc(-n2cnnc2)ccc1-c1cccc2c1CCNC2`, the cytotoxicity at 70.5 h turned out to be 6.99%. Regarding `Cc1nc(CCNc2nc(N(C)C)nc3c2CCCC3)cc(=O)[nH]1`, the cytotoxicity at 70.5 h was -10.9%. In the case of `CN(C)Cc1nnc(C(=O)N(C)Cc2ccc(C(F)(F)F)cc2)o1`, the cytotoxicity at 70.5 h is -1.19%. With `O=C(O)C1c2nc[nH]c2CCN1CC(c1ccccc1)c1ccccc1` (stereo not drawn), the cytotoxicity at 70.5 h was -3.04%. `CN1CC2(CCN(C(=O)c3ccc(-n4cnnc4)cc3Cl)CC2)OC1=O`: the cytotoxicity at 70.5 h was -4.9%.

On to `COc1ccccc1C1CNC(=O)c2nc(-c3nccn3C)[nH]c2C1` (stereo not drawn), for which the cytotoxicity at 70.5 h is 5.33%. The value for `N[C@H]1CN(S(=O)(=O)c2ccccc2)C[C@@H]1C1CC1` was 17.3%. Regarding `O=C(CCN1C[C@@H]2CC[C@H]1C2)N1CCN(c2cccc(Cl)c2)C(=O)C1`, the cytotoxicity at 70.5 h is -0.743%.
